This passage reports TGI and GI50 results from PubChem BioAssay (NCI).

Test systems include DMS 114 small cell lung; SK-OV-3 ovarian; LOX IMVI melanoma; HCT-116 colon; KM12 colon; LXFL 529 NSCLC; SNB-78 CNS; TK-10 renal; HOP-62 NSCLC; HOP-18 NSCLC; PC-3 prostate.
Holding throughout (assay): growth of human tumour cells (NCI), 48 h

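Compound exposure: 48 hours, 5 concentrations, 96-well plates. GI50 = concentration required for 50% inhibition of growth. TGI marks complete inhibition of growth.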

For `COc1cc(C[P+](c2ccccc2)(c2ccccc2)c2ccccc2)cc(OC)c1OC`, the TGI in the test on DMS 114 small cell lung, with SK-OV-3 ovarian, with LOX IMVI melanoma, with HCT-116 colon, in the test on KM12 colon and in the test on LXFL 529 NSCLC was more than 100 µM in each case. Moreover, the TGI in the test on SNB-78 CNS, in the test on TK-10 renal and in the test on HOP-62 NSCLC was more than 100 µM throughout.
Consider `O=C1C=C(Nc2ccc(Cl)cc2C(=O)c2ccccc2)c2ccccc2C1=O`, for which the TGI in the test on DMS 114 small cell lung, in the test on SK-OV-3 ovarian, in the test with LOX IMVI melanoma, with HCT-116 colon, in the test on KM12 colon and in the test with LXFL 529 NSCLC was more than 100 µM throughout. The TGI with HOP-18 NSCLC, with SNB-78 CNS, with TK-10 renal and in the test with HOP-62 NSCLC was more than 100 µM in each case.
With `COC(=N)c1csc(C2OC(CO)C(O)C2O)n1` (configuration not stated), the TGI in the test with DMS 114 small cell lung, with SK-OV-3 ovarian, in the test with LOX IMVI melanoma, in the test on HCT-116 colon, with KM12 colon and with LXFL 529 NSCLC was more than 100 µM in each case. The TGI in the test on HOP-18 NSCLC, with SNB-78 CNS, in the test on TK-10 renal and in the test with HOP-62 NSCLC was more than 100 µM throughout.
On to `CCCN(CCC)c1c([N+](=O)[O-])cc(C(=O)N(CC)CC)cc1[N+](=O)[O-]`, for which the TGI was 42.8 µM with DMS 114 small cell lung; 96 µM in the test with SK-OV-3 ovarian; 30.8 µM in the test on LOX IMVI melanoma; 27.2 µM with HCT-116 colon; 63.7 µM with LXFL 529 NSCLC; more than 100 µM in the test with SNB-78 CNS. For the same compound, the TGI was 76.8 µM in the test with TK-10 renal and more than 100 µM in the test with HOP-62 NSCLC.
Consider `CCOC(=O)C(Br)=C1OC(=O)c2ccccc2-c2ccccc21` (mixture of isomers), for which the TGI with DMS 114 small cell lung was 32.2 µM; in the test on SK-OV-3 ovarian, more than 100 µM; in the test with LOX IMVI melanoma it was 35.9 µM; in the test with HCT-116 colon, 34 µM; in the test with KM12 colon, 34.9 µM; with LXFL 529 NSCLC, 26.5 µM. For the same compound, the TGI in the test with HOP-18 NSCLC was determined as 51.4 µM; in the test with SNB-78 CNS, 52.3 µM; in the test on TK-10 renal, 49 µM; in the test with HOP-62 NSCLC, 37.4 µM.
For the compound `COCOCCC#CCO`, the TGI in the test on DMS 114 small cell lung, in the test on SK-OV-3 ovarian, in the test with LOX IMVI melanoma, in the test on HCT-116 colon, with KM12 colon and in the test on LXFL 529 NSCLC was more than 100 µM throughout. The TGI with HOP-18 NSCLC, in the test on SNB-78 CNS and with TK-10 renal was more than 100 µM in each case.
Take `Cc1cc2c(cc1C)[n+](=O)cc(C(=O)C/C(=N/NC(=S)NN)C(=O)Nc1cccc(C(F)(F)F)c1)n2[O-]`: the TGI with DMS 114 small cell lung, in the test with SK-OV-3 ovarian, in the test with HCT-116 colon, in the test on KM12 colon, in the test with LXFL 529 NSCLC and with HOP-18 NSCLC was more than 100 µM throughout. Besides, the TGI in the test with SNB-78 CNS, in the test with TK-10 renal and in the test with HOP-62 NSCLC was more than 100 µM throughout.
In the case of `FC(F)(F)c1ccc2nc(NCc3ccccc3)c(-c3ccccc3)nc2c1`, the TGI in the test on SK-OV-3 ovarian is more than 100 µM; in the test with LOX IMVI melanoma, 52.7 µM; with HCT-116 colon it was more than 100 µM; with LXFL 529 NSCLC it was more than 100 µM; in the test on HOP-18 NSCLC, more than 100 µM; in the test on SNB-78 CNS it was more than 100 µM. Besides, the TGI with TK-10 renal and in the test with HOP-62 NSCLC was more than 100 µM each time.
As for `Oc1oc(C(=C2N=c3ccccc3=N2)c2ccc(Cl)cc2)c(O)c1-c1ccc(Cl)cc1`, the TGI came to 5.52 µM with DMS 114 small cell lung; 11.3 µM with SK-OV-3 ovarian; 10.1 µM in the test with LOX IMVI melanoma; 9.14 µM in the test on HCT-116 colon; 15.9 µM with KM12 colon; 12.2 µM in the test on LXFL 529 NSCLC. Besides, the TGI is more than 100 µM in the test with HOP-18 NSCLC, more than 100 µM in the test on SNB-78 CNS, 11.5 µM in the test on TK-10 renal and 4.51 µM in the test on HOP-62 NSCLC.
As for `CC1=C(C(=O)Nc2ccccc2)C(c2ccc(Cl)c(Cl)c2)C(C(=O)Nc2ccccc2)=C(C)N1`, the TGI with DMS 114 small cell lung worked out at 24.8 µM; in the test on SK-OV-3 ovarian, 31.6 µM; in the test on LOX IMVI melanoma it was 28.5 µM; in the test with HCT-116 colon, 22.3 µM; in the test on KM12 colon it was 25.7 µM; in the test with LXFL 529 NSCLC, 25.6 µM. The TGI stood at 53.8 µM in the test on SNB-78 CNS, 75.2 µM in the test with TK-10 renal and 28.6 µM in the test with HOP-62 NSCLC.
Turning to `CCOC(=O)Cc1csc(Nc2ccccc2[N+](=O)[O-])n1`, the TGI is more than 100 µM with DMS 114 small cell lung; more than 100 µM with SK-OV-3 ovarian; more than 70.2 µM in the test with LOX IMVI melanoma; more than 100 µM in the test with HCT-116 colon; more than 100 µM in the test with KM12 colon; more than 100 µM with LXFL 529 NSCLC. The TGI with HOP-18 NSCLC, in the test on SNB-78 CNS, with TK-10 renal and in the test on HOP-62 NSCLC was more than 100 µM throughout.
In the case of `CC12c3ccccc3C(OC=O)(c3ccccc31)C1(C)c3ccccc3C2(OC=O)c2ccccc21`, the TGI in the test with DMS 114 small cell lung, in the test with SK-OV-3 ovarian, in the test on LOX IMVI melanoma, with HCT-116 colon, in the test with KM12 colon and in the test with LXFL 529 NSCLC was more than 100 µM throughout. The TGI in the test on HOP-18 NSCLC, in the test with SNB-78 CNS, in the test on TK-10 renal and in the test with HOP-62 NSCLC was more than 100 µM throughout.
Turning to `O=c1[nH]c(=O)n(C2CC(O)C(CO)O2)cc1OS(=O)(=O)C(F)(F)F` (configuration not stated), the TGI with DMS 114 small cell lung, in the test on SK-OV-3 ovarian, in the test with LOX IMVI melanoma, with HCT-116 colon, in the test with KM12 colon and in the test on LXFL 529 NSCLC was more than 100 µM throughout. In addition, the TGI in the test with HOP-18 NSCLC, in the test on TK-10 renal and in the test with HOP-62 NSCLC was more than 100 µM in each case.
Take `Nc1nc(Cl)nc2c1ncn2C1CC(O)C(CO)O1` (configuration not stated): the TGI is more than 100 µM in the test on SK-OV-3 ovarian; 30.6 µM with LOX IMVI melanoma; more than 100 µM in the test on HCT-116 colon; more than 100 µM in the test with KM12 colon; more than 100 µM in the test on PC-3 prostate; more than 100 µM with HOP-18 NSCLC. In addition, the TGI with SNB-78 CNS is more than 100 µM; in the test with TK-10 renal it was more than 100 µM; in the test on HOP-62 NSCLC, 6.8 µM. The GI50 in the test with PC-3 prostate was more than 100 µM; in the test with TK-10 renal, 50.2 µM.
